Read-outs that look alike come from different tables or passages of the source.
What was measured:
Nrf2 = Nrf2 induction, SDS-PAGE and Western blotting of nuclear extracts; assay type: cell-based; details: cells treated 1, 2 and 4 hr at most protective concentration
Method: SDS-PAGE and immunoblotting. For immunoblotting of Nrf2, nuclear extracts were prepared as described (Schreiber, et al., Nucleic Acids Res. (1989) 17 (15), 6419) from untreated cells and cells treated with the Fisetin derivatives for 1, 2 and 4 hr. Fisetin was used as a positive control. […] Protein concentrations were determined using the BCA protein assay (Pierce). Equal amounts of protein were solubilized in 2.5× SDS-sample buffer, separated on 10% SDS-polyacrylamide gels and transferred to nitrocellulose. Equal loading and transfer of the samples was confirmed by staining the nitrocellulose with Ponceau-S. Transfers were blocked for 1 hr at room temperature with 5% nonfat milk in TBS/0.1% Tween 20 and then incubated overnight at 4° C. in the primary antibody diluted in 5% BSA in TBS/0.05% Tween 20. The primary antibodies used were: anti-Nrf2 (#SC13032; 1/1000) from Santa Cruz Biotechnology (Santa Cruz, Calif.) and anti-β-actin (#5125; 1/20,000) from Cell Signaling (Beverly, Mass.). The transfers were rinsed with TB S/0.05% Tween 20 and incubated for 1 hr at room temperature in horseradish peroxidase-goat anti-rabbit or goat anti-mouse (Biorad, Hercules, Calif.) diluted 1/5000 in 5% nonfat milk in TBS/0.1% Tween 20. The immunoblots were developed with the Super Signal reagent (Pierce, Rockford, Ill.).
The transcription factor Nrf2 plays a key role in regulating GSH metabolism in many different cell types (Lewerenz, et al., Antioxidant & Redox Signaling. (2011) 14, 1449-1465). We have shown that Fisetin can induce Nrf2 and this correlates with its ability to enhance GSH levels (Maher, P. et al., Genes. Nutr. (2009) Sep. 10). To determine if the derivatives which can maintain GSH levels do so by increasing Nrf2 we looked at Nrf2 levels in the nuclei of derivative-treated cells using Fisetin as a positive control (Table 4). […] This was particularly true for the derivatives based on the quinoline scaffold where none of them increased Nrf2 despite being very effective at maintaining GSH levels.
The ability of the derivatives that maintain GSH levels to induce the transcription factor Nrf2 was assayed by SDS-PAGE and Western blotting of nuclear extracts of untreated and derivative-treated cells. Fisetin treatment was used as a positive control.

N9 microglial cells = assay: anti-inflammatory assay, LPS-induced microglial activation (NO release); assay type: cell-based, mouse; details: bacterial lipopolysaccharide, derivative 1-10 μM, 24 hr
Method: Anti-inflammatory assay. Mouse N9 microglial cells plated in DME with 7.5% DFCS were treated with 10 μg/ml bacterial lipopolysaccharide (Sigma) alone or in the presence of the Fisetin derivatives (1-10 μM) or Fisetin (10 μM) as a positive control. After 24 hr the medium was removed, spun briefly to remove floating cells and 100 μl assayed for NO using 100 μl of the Griess Reagent (Sigma) in a 96 well plate. After incubation for 10 min at room temperature the absorbance at 550 nm was read on a microplate reader.
Three secondary screens allowed assessment of three key activities of Fisetin that are highly relevant to stroke, as well as other neurological disorders: maintenance of glutathione (GSH), the major endogenous cellular antioxidant, inhibition of LPS-induced microglial activation, an indicator of anti-inflammatory activity and PC12 cell differentiation, a measure of neurotrophic activity. All of these activities are relevant to the nerve cell loss seen in stroke (Gelderblom, et al., Stroke. 2009, 40 (5), 1849-1857; Pandya, et al., Cent. Nerv. Syst. Agents. Med. Chem. (2011) Apr. 27; Lewerenz, et al., J. Neurochem. (2010) 113 (2), 502-504). […] To assess GSH maintenance, total intracellular GSH levels after a 24 hr treatment with the compound both in the absence and presence of glutamate, an inducer of GSH loss and oxidative stress (Tan, et al., Curr. Top. Med. Chem. (2001) 1, 497-506; Maher, et al., Free Radical Research. (2006) 40 (10), 1105-1111) was measured Inhibition of LPS-induced microglial activation was determined by treating N9 mouse microglial cells with LPS alone and in the presence of the compounds and assaying NO release into the medium 24 hr later (Zheng, et al., Int. Immunopharmacol. (2008) 8, (3), 484-494). PC12 cell differentiation was determined by treating PC12 cells with the compounds and looking at neurite outgrowth after 24 hr. In all cases, Fisetin was used as a positive control (Sagara, et al., J. Neurochem. (2004) 90, 1144-1155).
The roles of the four different hydroxyl groups in the activity of Fisetin were studied. […] Cell viability was determined after 24 hr by the MTT assay. The ability to maintain GSH (GSH) was determined by treating HT22 cells with different doses of each derivative (1-10 μM) in the presence of 5 mM glutamate. After 24 hr cell extracts were prepared and analyzed for total GSH. Fisetin (10 μM) was used as a positive control. The ability to induce PC12 cell differentiation (PC12 diff'n) was determined by treating PC12 cells in N2 medium with different doses of each derivative (1-10 μM) for 24 hr. Differentiation was assessed by visual inspection with Fisetin (10 μM) as a positive control. Anti-inflammatory activity (microglia) was assessed in N9 microglial cells treated with bacterial lipopolysaccharide alone or in the presence different doses of each derivative (1-10 μM) for 24 hr. Fisetin was used as a positive control. TEAC values, a measure of direct antioxidant activity, were determined using the ABTS+ decolorization assay.

PC12 cells = assay: glucose starvation assay; assay type: cell-based; details: PC12 cells starved for glucose, MTT 24 hr
Method: FIG. 5C—PC12 cells were glucose-deprived then were incubates in the absence or presence of Baicalein. Cell viability was determined 24 hr later using the MTT assay. […] When these cells are starved for glucose, there is approximately 70% maximal survival in the presence of NGF. Baicalein promotes over 80% survival (FIG. 5C).

[1] = test system: embolic strokes in rabbits; details: RSCEM, as published in the manuscript; cited from earlier work
[2] = test system: embolic strokes in rabbits; assay: rabbit small clot embolic stroke model (RSCEM); assay type: in vivo
From the text: The ability of polyphenol analogs to treat, prevent and/or mitigate one or more symptoms of stroke can also be evaluated in in vivo assays. Such assays are known in the art and find use. One applicable in vivo screening assay is the rabbit clot embolic stroke model, discussed, e.g., in Lapchak, et al., Stroke (2002) 33(9):2279-84 and Lapchak, Exp Neurol. (2007) 205(2):407-13. The rabbit small clot embolic stroke model (RSCEM) and rabbit large clot embolic stroke model (RLCEM) can be used to determine the potential neuroprotective properties and safety profile of test polyphenol analogs after an embolic stroke. Rabbits are embolized by injecting small blood clots (RSCEM) or large blood clots (RLCEM) into the cerebral circulation. Behavioral analysis is conducted 24 hours later, allowing for determination of the effective stroke dose (ES50) or clot amount (milligrams) that produces severe neurological deficits in 50% of rabbits. A drug is considered neuroprotective if it increases the ES50 compared with the vehicle-treated control group.
Either vehicle or bolus injections of chlorogenic acid were administered intravenously over 1 minute starting 5 minutes following embolization using a suspension of small-sized blood clots. In this series of studies, CGA was administered at 50 mg/kg. Behavioral analysis was conducted at 24 hours following treatment, which allowed for the construction of quantal dose-response analysis curves. […] For the superimposed graphs, normal animals are plotted on the y-axis at 0% and abnormal animals are plotted at 100%. […] Moreover, CGA increased the P50 value (the clot dose that produces abnormality in 50% of a treatment group) compared to vehicle control. For a detailed discussion of the methods used to fit the quantal data to a sigmoidal curve, see Zivin and Waud. The pharmacology of chlorogenic acid in the rabbit small clot embolic stroke model (RSCEM) has been published (Lapchak, Exp Neurol. 2007 205(2):407-13). In the manuscript, it is shown that CGA has a therapeutic window of 60 minutes in the RSCEM. FIG. 2 presents the therapeutic window data.
Using the RSCEM assay described above for CGA, the effects of Fisetin (50 mg/kg) on behavioral outcome measured 24 hours following embolization is tested.

Molecule | Nrf2 (induction of transcription factor Nrf2) (Nrf2) | microglia (anti-inflammatory activity) (N9 microglial cells) | other results
O=C(/C=C/c1ccc(O)c(O)c1)c1ccc2ccccc2c1O [CMS-034, (E)-3-(3,4-dihydroxyphenyl)-1-(1-hydroxynaphthalen-2-yl)prop-2-en-1-one] | Yes | 75% | 
NGF: NGF, comparator giving approximately 70% maximal survival of glucose-starved PC12 cells |  |  | survival (PC12 cells): approximately 70%
Cc1cc2oc(-c3ccc(N4CCCC4)cc3)c(O)c(=O)c2cc1C [CMS-122, 3-hydroxy-6,7-dimethyl-2-(4-(pyrrolidin-1-yl)phenyl)-4H-chromen-4-one] | No | 0% | 
O=C(/C=C/c1ccc(O)c(O)c1)O[C@@H]1C[C@](O)(C(=O)O)C[C@@H](O)[C@H]1O [Chlorogenic Acid, 1,3,4,5-tetrahydroxy-cyclohexanecarboxylic acid 3-(3,4-dihydroxycinnamate)] |  |  | therapeutic window [1]: 60 min; behavior when administered 1 hour following embolization ([2]; 1 hour following embolization): effective at improving behavior; behavior when administered 3 hours following embolization ([2]; 3 hours following embolization): neither improve behavior; therapeutic window ([2]; time post-embolization, FIG. 2): 60 min
Cc1cc(O)c(C(=O)/C=C/c2ccc(O)c(O)c2)cc1C [CMS-011, (E)-3-(3,4-dihydroxyphenyl)-1-(2-hydroxy-4,5-dimethylphenyl)prop-2-en-1-one] | Yes | 94% | 
CN(C)c1ccc(-c2oc3c(ccc4ccccc43)c(=O)c2O)cc1 [CMS-118, 2-(4-(dimethylamino)phenyl)-3-hydroxy-4H-benzo[h]chromen-4-one] | No | 0% | 
Cc1cc2oc(-c3ccc(N(C)C)cc3)c(O)c(=O)c2cc1C [CMS-117, 2-(4-(dimethylamino)phenyl)-3-hydroxy-6,7-dimethyl-4H-chromen-4-one] | No | 11% | 

From patent US9744164B2, “Neuroprotective polyphenol analogs” (Salk Institute for Biological Studies, priority 2011, dated 2017)
